# Measurements reported in PubChem BioAssay AID2060502 (Molecular Pharmacology Branch, DTP, NCI, 2025).
# Tested on: 885724-159-R-J1-PDC complex spheroid viability
# Experiment: Anticancer human tumor 885724-159-R-J1-PDC patient-derived pancreatic adenocarcinoma cell line growth inhibition [GQUAD]
# Details: for IC50: curve of first compound; for viability, T/C: stronger effect = lower value
# In short: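 Tumor cells were grown as complex spheroids with HUVEC endothelial cells and mesenchymal stem cells as stroma. G-quadruplex stabilizers were combined with targeted agents over half-log dilutions from near the clinical Cmax, or from 10 microM.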
# [1] = second compound 0.0316 µM, first compound 0.0316 µM
# [2] = second compound 0.0316 µM, first compound 0.316 µM
# [3] = second compound 0.1 µM, first compound 0.0316 µM
# [4] = second compound 0.1 µM, first compound 0.316 µM
# [5] = second compound 0.316 µM, first compound 0.0316 µM
# [6] = second compound 0.316 µM, first compound 0.316 µM
# [7] = second compound 1 µM, first compound 0.0316 µM
# [8] = second compound 1 µM, first compound 0.316 µM
# [9] = second compound 3.16 µM, first compound 0.0316 µM
# [10] = second compound 3.16 µM, first compound 0.316 µM
# [11] = second compound 10 µM, first compound 0.0316 µM
# [12] = second compound 10 µM, first compound 0.316 µM
# [13] = second compound 0.0316 µM, first compound 0.1 µM
# [14] = second compound 0.0316 µM, first compound 1 µM
# [15] = second compound 0.0316 µM, first compound 3.16 µM
# [16] = second compound 0.0316 µM, first compound 10 µM
# [17] = second compound 0.1 µM, first compound 0.1 µM
# [18] = second compound 0.1 µM, first compound 1 µM
# [19] = second compound 0.1 µM, first compound 3.16 µM
# [20] = second compound 0.1 µM, first compound 10 µM
# [21] = second compound 0.316 µM, first compound 0.1 µM
# [22] = second compound 0.316 µM, first compound 1 µM
# [23] = second compound 0.316 µM, first compound 3.16 µM
# [24] = second compound 0.316 µM, first compound 10 µM
# [25] = second compound 1 µM, first compound 0.1 µM
# [26] = second compound 1 µM, first compound 1 µM
# [27] = second compound 1 µM, first compound 3.16 µM
# [28] = second compound 1 µM, first compound 10 µM
# [29] = second compound 3.16 µM, first compound 0.1 µM
# [30] = second compound 3.16 µM, first compound 1 µM
# [31] = second compound 3.16 µM, first compound 3.16 µM
# [32] = second compound 3.16 µM, first compound 10 µM
# [33] = second compound 10 µM, first compound 0.1 µM
# [34] = second compound 10 µM, first compound 1 µM
# [35] = second compound 10 µM, first compound 3.16 µM
# [36] = second compound 10 µM, first compound 10 µM
# 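Note: spheroids exposed to agents for seven days before readout.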
# 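Throughout, for viability, T/C: percent of vehicle control viability where 100% = DMSO wells.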
compound,measurement,setting,value
Cn1ncnc1[C@H]1c2n[nH]c(=O)c3cc(F)cc(c23)N[C@@H]1c1ccc(F)cc1 + Cc1cnc(CNC(=O)c2c(=O)c3ccc(N4CCCN(C)CC4)nc3n3c2sc2ccccc23)cn1,IC50,second compound 0.0316 µM,> 0.316 µM
same,IC50,second compound 0.1 µM,> 0.316 µM
same,IC50,second compound 0.316 µM,> 0.316 µM
same,IC50,second compound 1 µM,> 0.316 µM
same,IC50,second compound 3.16 µM,> 0.316 µM
same,IC50,second compound 10 µM,> 0.316 µM
same,"viability, T/C","second compound 0.0316 µM, first compound 0.000999 µM",90.3%
same,"viability, T/C","second compound 0.0316 µM, first compound 0.00316 µM",107%
same,"viability, T/C","second compound 0.0316 µM, first compound 0.00999 µM",96.3%
same,"viability, T/C",[1],108%
same,"viability, T/C","second compound 0.0316 µM, first compound 0.0999 µM",90.3%
same,"viability, T/C",[2],92.7%
same,"viability, T/C","second compound 0.1 µM, first compound 0.000999 µM",117%
same,"viability, T/C","second compound 0.1 µM, first compound 0.00316 µM",115%
same,"viability, T/C","second compound 0.1 µM, first compound 0.00999 µM",97.1%
same,"viability, T/C",[3],100%
same,"viability, T/C","second compound 0.1 µM, first compound 0.0999 µM",98.8%
same,"viability, T/C",[4],92.2%
same,"viability, T/C","second compound 0.316 µM, first compound 0.000999 µM",90.1%
same,"viability, T/C","second compound 0.316 µM, first compound 0.00316 µM",94.5%
same,"viability, T/C","second compound 0.316 µM, first compound 0.00999 µM",104%
same,"viability, T/C",[5],96.3%
same,"viability, T/C","second compound 0.316 µM, first compound 0.0999 µM",96.6%
same,"viability, T/C",[6],98.7%
same,"viability, T/C","second compound 1 µM, first compound 0.000999 µM",86.8%
same,"viability, T/C","second compound 1 µM, first compound 0.00316 µM",85.6%
same,"viability, T/C","second compound 1 µM, first compound 0.00999 µM",82.3%
same,"viability, T/C",[7],79.2%
same,"viability, T/C","second compound 1 µM, first compound 0.0999 µM",87.4%
same,"viability, T/C",[8],84.2%
same,"viability, T/C","second compound 3.16 µM, first compound 0.000999 µM",79.8%
same,"viability, T/C","second compound 3.16 µM, first compound 0.00316 µM",76.1%
same,"viability, T/C","second compound 3.16 µM, first compound 0.00999 µM",78.9%
same,"viability, T/C",[9],76.1%
same,"viability, T/C","second compound 3.16 µM, first compound 0.0999 µM",81%
same,"viability, T/C",[10],72.6%
same,"viability, T/C","second compound 10 µM, first compound 0.000999 µM",82.4%
same,"viability, T/C","second compound 10 µM, first compound 0.00316 µM",88.2%
same,"viability, T/C","second compound 10 µM, first compound 0.00999 µM",83%
same,"viability, T/C",[11],89.4%
same,"viability, T/C","second compound 10 µM, first compound 0.0999 µM",105%
same,"viability, T/C",[12],94.6%
CC(C)n1c(=O)n(C)c2cnc3cc(F)c(-c4ccc(OCCCN5CCCCC5)nc4)cc3c21 + Cc1[nH]c2ccc(F)cc2c1-c1nc2c3cccnc3c3ncccc3c2[nH]1,IC50,second compound 0.0316 µM,> 10 µM
same,IC50,second compound 0.1 µM,> 10 µM
same,IC50,second compound 0.316 µM,> 10 µM
same,IC50,second compound 1 µM,> 10 µM
same,IC50,second compound 3.16 µM,0.133 µM
same,IC50,second compound 10 µM,> 10 µM
same,"viability, T/C",[1],107%
same,"viability, T/C",[13],95.2%
same,"viability, T/C",[2],98.2%
same,"viability, T/C",[14],92.9%
same,"viability, T/C",[15],84.6%
same,"viability, T/C",[16],83.2%
same,"viability, T/C",[3],100%
same,"viability, T/C",[17],99.2%
same,"viability, T/C",[4],100%
same,"viability, T/C",[18],91.3%
same,"viability, T/C",[19],94.5%
same,"viability, T/C",[20],78.9%
same,"viability, T/C",[5],93.4%
same,"viability, T/C",[21],102%
same,"viability, T/C",[6],92.5%
same,"viability, T/C",[22],79.8%
same,"viability, T/C",[23],81.6%
same,"viability, T/C",[24],74.2%
same,"viability, T/C",[7],74.3%
same,"viability, T/C",[25],69.2%
same,"viability, T/C",[8],75%
same,"viability, T/C",[26],70%
same,"viability, T/C",[27],68.3%
same,"viability, T/C",[28],59.5%
same,"viability, T/C",[9],54.7%
same,"viability, T/C",[29],43.4%
same,"viability, T/C",[10],53.8%
same,"viability, T/C",[30],42.9%
same,"viability, T/C",[31],38.5%
same,"viability, T/C",[32],25.3%
same,"viability, T/C",[11],69.9%
same,"viability, T/C",[33],71.6%
same,"viability, T/C",[12],79.8%
same,"viability, T/C",[34],76.1%
same,"viability, T/C",[35],72.4%
same,"viability, T/C",[36],63.2%
CCCS(=O)(=O)Nc1ccc(F)c(C(=O)c2c[nH]c3ncc(-c4ccc(Cl)cc4)cc23)c1F + Cc1[nH]c2ccc(F)cc2c1-c1nc2c3cccnc3c3ncccc3c2[nH]1,IC50,second compound 0.0316 µM,> 10 µM
same,IC50,second compound 0.1 µM,> 10 µM
same,IC50,second compound 0.316 µM,> 10 µM
same,IC50,second compound 1 µM,7.43 µM
same,IC50,second compound 3.16 µM,< 0.0316 µM
same,IC50,second compound 10 µM,8.37 µM
same,"viability, T/C",[1],98.7%
same,"viability, T/C",[13],106%
same,"viability, T/C",[2],112%
same,"viability, T/C",[14],130%
same,"viability, T/C",[15],123%
same,"viability, T/C",[16],65.2%
same,"viability, T/C",[3],110%
same,"viability, T/C",[17],106%
same,"viability, T/C",[4],116%
same,"viability, T/C",[18],124%
same,"viability, T/C",[19],125%
same,"viability, T/C",[20],65.6%
same,"viability, T/C",[5],97.6%
same,"viability, T/C",[21],89.8%
same,"viability, T/C",[6],90%
same,"viability, T/C",[22],107%
same,"viability, T/C",[23],130%
same,"viability, T/C",[24],59.8%
same,"viability, T/C",[7],71.8%
same,"viability, T/C",[25],60.4%
same,"viability, T/C",[8],88.2%
same,"viability, T/C",[26],90.8%
same,"viability, T/C",[27],102%
same,"viability, T/C",[28],38.7%
same,"viability, T/C",[9],17%
same,"viability, T/C",[29],17.7%
same,"viability, T/C",[10],14.4%
same,"viability, T/C",[30],18.3%
same,"viability, T/C",[31],13.9%
same,"viability, T/C",[32],4.94%
same,"viability, T/C",[11],65.9%
same,"viability, T/C",[33],73.4%
same,"viability, T/C",[12],77.7%
same,"viability, T/C",[34],93.8%
same,"viability, T/C",[35],110%
same,"viability, T/C",[36],43.6%
